Consider three compounds from patent US12479847B2 (DANA-FARBER CANCER INSTITUTE, INC., priority 2019, dated 2025).

What all share (test): KINOMEscan (ScanMAX) kinase profiling
What all share (assay type): binding

The target of assay [1] is T1, panel of 468 kinases (Homo sapiens, UniProt P28482).
T1 construct: purchased KINOMEscan (ScanMAX) service
The settings on record: ERK2; 1 μM; read-out: % control.

Assay [2] has as its target T2, panel of 468 kinases (Homo sapiens, UniProt P29320).
T2 construct: purchased KINOMEscan (ScanMAX) service
T2 sequence (P29320 21-983): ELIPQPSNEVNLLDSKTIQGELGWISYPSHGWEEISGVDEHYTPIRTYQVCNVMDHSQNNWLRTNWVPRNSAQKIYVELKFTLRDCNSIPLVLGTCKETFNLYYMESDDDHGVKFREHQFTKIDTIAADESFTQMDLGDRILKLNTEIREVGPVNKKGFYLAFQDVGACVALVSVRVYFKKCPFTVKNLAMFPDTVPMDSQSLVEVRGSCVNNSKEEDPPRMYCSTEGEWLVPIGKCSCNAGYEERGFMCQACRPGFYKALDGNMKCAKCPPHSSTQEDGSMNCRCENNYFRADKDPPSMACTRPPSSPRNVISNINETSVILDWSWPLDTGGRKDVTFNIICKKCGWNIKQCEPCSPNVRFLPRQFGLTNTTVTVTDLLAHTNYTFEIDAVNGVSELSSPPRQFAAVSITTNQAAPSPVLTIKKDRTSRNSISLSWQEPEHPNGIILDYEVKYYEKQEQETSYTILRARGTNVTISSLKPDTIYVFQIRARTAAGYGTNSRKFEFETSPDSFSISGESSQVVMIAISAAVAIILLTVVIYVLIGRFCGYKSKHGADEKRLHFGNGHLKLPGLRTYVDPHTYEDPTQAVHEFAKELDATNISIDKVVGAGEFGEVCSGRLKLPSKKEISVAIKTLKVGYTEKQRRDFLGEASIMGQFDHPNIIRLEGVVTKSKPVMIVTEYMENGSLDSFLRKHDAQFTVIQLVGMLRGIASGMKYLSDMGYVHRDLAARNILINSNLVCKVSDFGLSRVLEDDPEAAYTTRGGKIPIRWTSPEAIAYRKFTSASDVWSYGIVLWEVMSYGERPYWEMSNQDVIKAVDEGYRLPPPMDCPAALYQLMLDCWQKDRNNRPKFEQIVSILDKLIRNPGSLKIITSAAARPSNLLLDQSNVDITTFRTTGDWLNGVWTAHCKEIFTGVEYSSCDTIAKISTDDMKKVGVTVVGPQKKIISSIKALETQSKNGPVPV
To be noted: EPHA3; 1 μM; read-out: % control.

For assay [3], the target named is T3, panel of 468 kinases (Homo sapiens, UniProt Q16288).
T3 construct: purchased KINOMEscan (ScanMAX) service
T3 sequence (Q16288 32-839): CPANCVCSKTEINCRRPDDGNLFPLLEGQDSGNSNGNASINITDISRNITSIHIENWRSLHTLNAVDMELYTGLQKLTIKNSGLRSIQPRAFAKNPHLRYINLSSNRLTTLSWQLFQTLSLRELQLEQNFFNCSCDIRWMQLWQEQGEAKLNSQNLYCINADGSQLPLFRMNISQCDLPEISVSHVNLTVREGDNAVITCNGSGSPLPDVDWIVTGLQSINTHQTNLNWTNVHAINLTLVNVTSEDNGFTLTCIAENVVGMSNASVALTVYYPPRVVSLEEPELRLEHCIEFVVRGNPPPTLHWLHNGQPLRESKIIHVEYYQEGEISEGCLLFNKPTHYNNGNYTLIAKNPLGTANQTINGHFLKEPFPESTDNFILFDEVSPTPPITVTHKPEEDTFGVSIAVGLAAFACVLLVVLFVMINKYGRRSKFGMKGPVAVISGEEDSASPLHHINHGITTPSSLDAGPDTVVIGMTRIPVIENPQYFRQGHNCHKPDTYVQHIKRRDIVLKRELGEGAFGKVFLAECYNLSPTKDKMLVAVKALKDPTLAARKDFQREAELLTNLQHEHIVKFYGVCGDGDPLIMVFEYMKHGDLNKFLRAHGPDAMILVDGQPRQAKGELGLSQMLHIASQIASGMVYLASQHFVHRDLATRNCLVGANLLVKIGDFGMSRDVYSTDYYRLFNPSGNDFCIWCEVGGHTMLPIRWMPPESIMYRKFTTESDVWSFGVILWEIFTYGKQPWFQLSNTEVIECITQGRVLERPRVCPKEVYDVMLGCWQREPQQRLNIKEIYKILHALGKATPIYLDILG
The settings on record: TRKC; 1 μM; read-out: % control.

Assay [4] addresses T4, panel of 468 kinases (Homo sapiens, UniProt Q9Y3S1).
T4 construct: purchased KINOMEscan (ScanMAX) service
To be noted: WNK2; 1 μM; read-out: % control.

The target in assay [5] is T5, panel of 468 kinases (Homo sapiens, UniProt P54756).
T5 construct: purchased KINOMEscan (ScanMAX) service
T5 sequence (P54756 25-1037): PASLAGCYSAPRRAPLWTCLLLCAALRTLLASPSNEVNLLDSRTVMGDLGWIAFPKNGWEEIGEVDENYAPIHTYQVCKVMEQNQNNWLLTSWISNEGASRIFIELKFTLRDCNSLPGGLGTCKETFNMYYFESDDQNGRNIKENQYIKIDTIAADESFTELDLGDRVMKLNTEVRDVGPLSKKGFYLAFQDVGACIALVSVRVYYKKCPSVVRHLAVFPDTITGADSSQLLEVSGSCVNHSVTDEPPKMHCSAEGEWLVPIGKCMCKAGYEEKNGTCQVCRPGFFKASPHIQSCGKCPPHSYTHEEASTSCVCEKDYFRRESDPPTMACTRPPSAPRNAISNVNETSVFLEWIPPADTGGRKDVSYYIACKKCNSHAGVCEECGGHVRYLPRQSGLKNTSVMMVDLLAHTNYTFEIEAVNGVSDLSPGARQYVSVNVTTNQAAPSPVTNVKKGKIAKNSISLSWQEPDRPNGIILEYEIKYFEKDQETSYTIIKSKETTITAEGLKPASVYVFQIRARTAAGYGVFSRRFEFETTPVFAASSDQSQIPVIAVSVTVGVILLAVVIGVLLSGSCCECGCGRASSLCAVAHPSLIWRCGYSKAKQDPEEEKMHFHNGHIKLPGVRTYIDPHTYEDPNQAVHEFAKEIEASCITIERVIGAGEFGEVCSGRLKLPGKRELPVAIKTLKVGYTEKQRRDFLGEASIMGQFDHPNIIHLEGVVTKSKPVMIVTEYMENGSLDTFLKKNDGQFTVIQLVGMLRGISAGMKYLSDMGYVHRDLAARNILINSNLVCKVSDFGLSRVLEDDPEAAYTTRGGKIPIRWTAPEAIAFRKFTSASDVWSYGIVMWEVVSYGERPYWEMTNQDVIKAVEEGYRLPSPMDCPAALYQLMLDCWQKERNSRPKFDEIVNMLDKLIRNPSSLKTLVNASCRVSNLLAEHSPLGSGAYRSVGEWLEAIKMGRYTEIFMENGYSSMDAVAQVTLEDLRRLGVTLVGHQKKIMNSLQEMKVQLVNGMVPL
To be noted: EPHA5; 1 μM; read-out: % control.

The target in assay [6] is T6, panel of 468 kinases (Homo sapiens, UniProt Q9P286).
T6 construct: purchased KINOMEscan (ScanMAX) service
T6 sequence (Q9P286 whole entry): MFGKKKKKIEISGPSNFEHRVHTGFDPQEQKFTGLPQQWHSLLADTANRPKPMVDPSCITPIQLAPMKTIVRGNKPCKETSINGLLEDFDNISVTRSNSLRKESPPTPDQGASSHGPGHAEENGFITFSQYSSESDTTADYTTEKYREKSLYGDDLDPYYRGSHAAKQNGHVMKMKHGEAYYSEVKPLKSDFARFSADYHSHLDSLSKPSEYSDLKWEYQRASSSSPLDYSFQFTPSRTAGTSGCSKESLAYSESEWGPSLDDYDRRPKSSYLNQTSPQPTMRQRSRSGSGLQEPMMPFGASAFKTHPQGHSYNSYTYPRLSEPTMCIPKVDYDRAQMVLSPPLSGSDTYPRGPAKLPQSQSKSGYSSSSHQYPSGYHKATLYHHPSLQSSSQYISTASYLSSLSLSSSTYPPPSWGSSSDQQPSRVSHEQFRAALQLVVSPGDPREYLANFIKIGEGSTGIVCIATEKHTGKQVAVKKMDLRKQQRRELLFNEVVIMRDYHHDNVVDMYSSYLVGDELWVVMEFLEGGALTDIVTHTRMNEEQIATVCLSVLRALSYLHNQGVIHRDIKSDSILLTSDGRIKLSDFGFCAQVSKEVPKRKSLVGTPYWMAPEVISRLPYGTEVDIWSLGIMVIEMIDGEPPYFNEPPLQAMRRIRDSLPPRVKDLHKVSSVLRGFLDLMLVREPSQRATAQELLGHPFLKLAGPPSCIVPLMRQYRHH
The settings on record: PAK7; 1 μM; read-out: % control.

The target in assay [7] is T7, panel of 468 kinases (Homo sapiens, UniProt Q16513).
T7 construct: purchased KINOMEscan (ScanMAX) service
T7 sequence (Q16513 whole entry): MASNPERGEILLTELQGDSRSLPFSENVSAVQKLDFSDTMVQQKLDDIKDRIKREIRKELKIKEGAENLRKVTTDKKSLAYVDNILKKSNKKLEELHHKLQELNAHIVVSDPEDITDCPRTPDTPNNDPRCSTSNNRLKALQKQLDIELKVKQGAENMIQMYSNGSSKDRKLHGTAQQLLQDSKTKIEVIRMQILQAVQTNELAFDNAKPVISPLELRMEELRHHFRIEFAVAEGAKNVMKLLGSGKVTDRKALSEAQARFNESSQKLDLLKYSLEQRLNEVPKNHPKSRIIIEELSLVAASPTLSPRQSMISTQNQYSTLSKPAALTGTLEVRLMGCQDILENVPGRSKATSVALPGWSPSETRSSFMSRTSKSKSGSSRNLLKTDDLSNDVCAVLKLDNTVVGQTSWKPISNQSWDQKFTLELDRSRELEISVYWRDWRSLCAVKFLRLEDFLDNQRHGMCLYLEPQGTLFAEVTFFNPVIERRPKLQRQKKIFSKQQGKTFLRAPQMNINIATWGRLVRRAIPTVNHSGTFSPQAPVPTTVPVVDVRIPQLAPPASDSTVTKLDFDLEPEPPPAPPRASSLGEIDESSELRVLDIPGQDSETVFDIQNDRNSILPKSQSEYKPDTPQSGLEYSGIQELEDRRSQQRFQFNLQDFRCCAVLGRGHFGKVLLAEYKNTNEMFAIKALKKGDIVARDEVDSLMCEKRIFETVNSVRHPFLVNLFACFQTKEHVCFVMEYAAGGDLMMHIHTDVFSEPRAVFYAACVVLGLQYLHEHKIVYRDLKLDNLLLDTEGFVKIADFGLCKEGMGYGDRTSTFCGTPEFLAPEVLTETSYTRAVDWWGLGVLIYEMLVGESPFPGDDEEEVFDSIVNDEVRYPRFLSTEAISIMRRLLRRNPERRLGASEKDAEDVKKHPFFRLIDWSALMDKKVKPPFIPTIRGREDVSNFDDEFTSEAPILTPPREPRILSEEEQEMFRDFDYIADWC
The settings on record: PKN2; 1 μM; read-out: % control.

In assay [8] the target is T8, panel of 468 kinases (Homo sapiens, UniProt Q9Y2H9).
T8 construct: purchased KINOMEscan (ScanMAX) service
T8 sequence (Q9Y2H9 whole entry): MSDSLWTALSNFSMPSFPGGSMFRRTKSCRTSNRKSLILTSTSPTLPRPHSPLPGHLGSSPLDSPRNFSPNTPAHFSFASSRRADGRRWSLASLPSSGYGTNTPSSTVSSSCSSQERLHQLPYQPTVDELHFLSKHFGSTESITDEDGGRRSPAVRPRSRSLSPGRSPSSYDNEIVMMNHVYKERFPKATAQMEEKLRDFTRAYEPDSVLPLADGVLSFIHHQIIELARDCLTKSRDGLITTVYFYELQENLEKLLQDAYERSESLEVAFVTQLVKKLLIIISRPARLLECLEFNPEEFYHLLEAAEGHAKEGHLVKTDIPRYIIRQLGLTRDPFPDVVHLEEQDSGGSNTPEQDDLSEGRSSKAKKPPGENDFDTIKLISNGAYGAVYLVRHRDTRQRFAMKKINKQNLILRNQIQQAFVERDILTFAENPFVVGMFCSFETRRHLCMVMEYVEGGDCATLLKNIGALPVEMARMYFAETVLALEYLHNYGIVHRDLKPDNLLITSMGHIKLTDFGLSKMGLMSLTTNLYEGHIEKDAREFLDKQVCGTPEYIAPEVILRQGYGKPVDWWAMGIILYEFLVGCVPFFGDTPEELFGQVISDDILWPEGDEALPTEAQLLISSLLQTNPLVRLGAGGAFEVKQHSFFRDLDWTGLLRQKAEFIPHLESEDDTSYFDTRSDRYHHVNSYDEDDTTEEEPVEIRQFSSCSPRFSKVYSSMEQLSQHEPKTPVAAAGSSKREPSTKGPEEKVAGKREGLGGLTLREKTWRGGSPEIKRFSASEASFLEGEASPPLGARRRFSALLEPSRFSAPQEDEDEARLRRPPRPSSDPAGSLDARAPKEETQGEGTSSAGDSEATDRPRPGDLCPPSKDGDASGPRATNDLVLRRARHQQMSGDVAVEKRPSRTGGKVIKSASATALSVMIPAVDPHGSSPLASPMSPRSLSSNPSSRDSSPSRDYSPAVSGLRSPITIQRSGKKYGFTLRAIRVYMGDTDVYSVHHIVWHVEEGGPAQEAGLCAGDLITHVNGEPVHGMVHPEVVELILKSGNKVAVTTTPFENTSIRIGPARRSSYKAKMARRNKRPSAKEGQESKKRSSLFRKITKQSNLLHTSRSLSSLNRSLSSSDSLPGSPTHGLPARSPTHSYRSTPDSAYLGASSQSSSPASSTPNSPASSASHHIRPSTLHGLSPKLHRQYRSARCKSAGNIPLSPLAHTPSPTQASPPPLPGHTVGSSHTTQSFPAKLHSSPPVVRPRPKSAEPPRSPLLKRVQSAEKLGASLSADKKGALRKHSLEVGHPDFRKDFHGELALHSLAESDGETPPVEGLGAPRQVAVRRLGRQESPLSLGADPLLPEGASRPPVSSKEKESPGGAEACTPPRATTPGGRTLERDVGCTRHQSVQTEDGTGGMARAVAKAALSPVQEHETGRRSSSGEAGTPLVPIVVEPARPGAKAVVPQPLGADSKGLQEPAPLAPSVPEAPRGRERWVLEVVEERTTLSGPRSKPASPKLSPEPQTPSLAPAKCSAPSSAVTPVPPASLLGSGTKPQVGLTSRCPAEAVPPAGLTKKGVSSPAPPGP
To be noted: MAST1; 1 μM; read-out: % control.

For assay [9], the target named is T9, panel of 468 kinases (Homo sapiens, UniProt Q9NRM7).
T9 construct: purchased KINOMEscan (ScanMAX) service
T9 sequence (Q9NRM7 1-1088): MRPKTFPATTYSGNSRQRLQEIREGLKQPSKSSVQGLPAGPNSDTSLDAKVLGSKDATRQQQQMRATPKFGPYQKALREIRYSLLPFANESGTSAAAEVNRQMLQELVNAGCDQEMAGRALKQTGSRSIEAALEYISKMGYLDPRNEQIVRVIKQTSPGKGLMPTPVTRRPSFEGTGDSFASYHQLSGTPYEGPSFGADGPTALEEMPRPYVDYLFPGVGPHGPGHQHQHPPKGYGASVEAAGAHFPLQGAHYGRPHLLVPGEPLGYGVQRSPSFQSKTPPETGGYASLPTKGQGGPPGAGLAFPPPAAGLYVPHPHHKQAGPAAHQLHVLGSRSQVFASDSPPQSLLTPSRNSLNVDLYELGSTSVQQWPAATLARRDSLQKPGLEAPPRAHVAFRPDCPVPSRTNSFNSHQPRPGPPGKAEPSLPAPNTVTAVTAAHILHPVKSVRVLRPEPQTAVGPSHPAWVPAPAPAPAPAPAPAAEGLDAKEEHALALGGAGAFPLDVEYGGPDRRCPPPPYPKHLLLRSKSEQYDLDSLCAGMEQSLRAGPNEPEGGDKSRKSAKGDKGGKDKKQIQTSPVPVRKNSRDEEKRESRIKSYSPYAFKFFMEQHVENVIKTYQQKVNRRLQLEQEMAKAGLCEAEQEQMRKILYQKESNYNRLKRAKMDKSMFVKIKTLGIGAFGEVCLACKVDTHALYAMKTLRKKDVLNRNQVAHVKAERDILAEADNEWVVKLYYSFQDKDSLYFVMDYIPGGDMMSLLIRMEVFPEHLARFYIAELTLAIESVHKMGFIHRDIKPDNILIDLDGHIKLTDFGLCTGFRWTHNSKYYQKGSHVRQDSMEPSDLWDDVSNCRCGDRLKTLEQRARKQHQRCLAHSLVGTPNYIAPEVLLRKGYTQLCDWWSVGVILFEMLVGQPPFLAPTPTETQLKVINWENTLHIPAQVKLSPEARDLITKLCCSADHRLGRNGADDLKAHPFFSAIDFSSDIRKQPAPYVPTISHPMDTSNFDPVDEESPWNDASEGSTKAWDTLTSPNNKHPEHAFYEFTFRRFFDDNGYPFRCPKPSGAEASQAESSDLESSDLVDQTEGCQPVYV
To be noted: LATS2; 1 μM; read-out: % control.

For `CNc1nc(Nc2ccc(S(=O)(=O)N3CCC(N4CCOCC4)CC3)cc2OC)nc2[nH]cc(Cl)c12` [Compound 12, 5-chloro-N2-(2-methoxy-4-((4-morpholinopiperidin-1-yl)sulfonyl)phenyl)-N4-methyl-7H-pyrrolo[2,3-d]pyrimidine-2,4-diamine], the remaining binding at 1 µM amounted to 100% at panel of 468 kinases [1]; 100% at panel of 468 kinases [2]; 100% on panel of 468 kinases [3]; 62% at panel of 468 kinases [4]; 100% on panel of 468 kinases [5]; 100% at panel of 468 kinases [6]. Also, the remaining binding at 1 µM was found to be 99% at panel of 468 kinases [7], 100% at panel of 468 kinases [8] and 100% on panel of 468 kinases [9].
As to `CNc1nc(Nc2ccc(P3(=O)CCN(C4CCOCC4)CC3)cc2OC)nc2[nH]cc(Cl)c12` [Compound 77, 4-(4-((5-chloro-4-(methylamino)-7H-pyrrolo[2,3-d]pyrimidin-2-yl)amino)-3-methoxyphenyl)-1-(tetrahydro-2H-pyran-4-yl)-1,4-azaphosphinane 4-oxide], the remaining binding at 1 µM at panel of 468 kinases [1] turned out to be 100%; at panel of 468 kinases [2], 100%; at panel of 468 kinases [3], 100%; on panel of 468 kinases [4], 71%; at panel of 468 kinases [5] it was 100%; on panel of 468 kinases [6] it was 100%. Further, the remaining binding at 1 µM on panel of 468 kinases [7] was 100%; at panel of 468 kinases [8], 97%; at panel of 468 kinases [9], 93%.
As to `CNc1nc(Nc2ccc(C(=O)N3CCC(N4CCOCC4)CC3)c3c2OCO3)nc2[nH]cc(Cl)c12` [Compound 75, (7-((5-chloro-4-(methylamino)-7H-pyrrolo[2,3-d]pyrimidin-2-yl)amino)benzo[d][1,3]dioxol-4-yl)(4-morpholinopiperidin-1-yl)methanone], the remaining binding at 1 µM was found to be 100% at panel of 468 kinases [1]; 100% at panel of 468 kinases [2]; 100% on panel of 468 kinases [3]; 69% on panel of 468 kinases [4]; 100% on panel of 468 kinases [5]; 97% on panel of 468 kinases [6]. The remaining binding at 1 µM is 91% on panel of 468 kinases [7], 93% at panel of 468 kinases [8] and 90% at panel of 468 kinases [9].
